The text below walks through data of patent publication US20090170867A1, “TRPV1 ANTAGONISTS INCLUDING SULFONAMIDE SUBSTITUENT AND USES THEREOF” (Shionogi & Co., Ltd., priority 2007, published 2009).

Experiment [1] concerns the target T1, human TRPV1 (Homo sapiens, UniProt Q8NER1).
T1 construct: using primers designed surrounding the complete hTRPV1 open reading frame; expressed in transfected cells; host or cells: CHO-K1 cells stably transfected with pcDNA3.1(-)-hVR1 plasmid
Nature of the experiment: Capsaicin-based assay, Protocol 2 (TRPV1/CHO cells, Fluo-4, FLIPR). It counts as cell-based. To be noted: capsaicin 100 nM final, mean ± SEM, number of trials in parentheses, read-out: TRPV1 IC50 Potency, Human Capsaicin CHO (hCAP-CHO). The source says:
The TRPV1/CHO cell line was generated as described below. […] The resulting PCR products were purified from agarose gels using Gel Band Purification Kit (GE Healthcare Bioscience) and were subcloned into pCR-Blunt vector (Invitrogen). The cloned cDNA was fully sequenced using a fluorescent dye-terminator reagent (BigDye Terminator ver3.1 Cycle Sequencing Kit, Applied Biosystems) and ABI Prism 3100 genetic analyzer (Applied Biosystems). The pCR-Blunt vector containing the hTRPV1 cDNA was subjected to restriction digestion with EcoRI. The restriction fragment was subcloned into expression vector pcDNA3.1 (-) (Invitrogen) and named pcDNA3.1 (-)-hVR1 plasmid. The sequence of the cDNA encoding TRPV1 is available at GenBank accession number AJ277028. […] The cells were transfected with the pcDNA3.1 (-)-hVR1 plasmid using FuGENE6 (Roche) according to the manufacturer's protocol. 24 hr after transfection, neomycin-resistant cells were selected using 1 mg/mL G418 (Nacalai Tesque). […] The cells expressing hTRPV1 were cultured in the growth medium supplemented with 1 mg/mL G418. […] Subsequently, the cells were loaded by incubation in 0.1 mL of wash buffer containing Fluo-4 at 3 μM final concentration. After 1 hour, the cells were washed twice with 0.2 mL wash buffer and resuspended in 0.1 mL wash buffer. The plates were then transferred to a Fluorescence Imaging Plate Reader (Molecular Devices). Fluorescence intensity was monitored for 15 seconds to establish a baseline. […] The final concentration of the compound was adjusted to range from 100 μM to 1.5625 μM. […] Data were collected over the entire time course and analyzed using Excel and the curve-fitting formula GraphPad Prism.

Experiment [2] deals with T1, human TRPV1. Briefly: pH-based assay, Protocol 2 (TRPV1/CHO cells, Fura-2 AM, FDSS-3000, pH 5.0-5.1). The format is cell-based. The following applies: H2SO4 agonist, mean ± SEM, number of trials in parentheses, read-out: TRPV1 IC50 Potency, Human pH CHO (hpH-CHO). From the text:
For Protocol 2, a Chinese Hamster Ovary cell line (CHO) that has been engineered to constitutively express human recombinant TRPV1 was used (TRPV1/CHO cells). The TRPV1/CHO cell line was generated as described below.
The resulting PCR products were purified from agarose gels using Gel Band Purification Kit (GE Healthcare Bioscience) and were subcloned into pCR-Blunt vector (Invitrogen). The cloned cDNA was fully sequenced using a fluorescent dye-terminator reagent (BigDye Terminator ver3.1 Cycle Sequencing Kit, Applied Biosystems) and ABI Prism 3100 genetic analyzer (Applied Biosystems). The pCR-Blunt vector containing the hTRPV1 cDNA was subjected to restriction digestion with EcoRI. The restriction fragment was subcloned into expression vector pcDNA3.1 (−) (Invitrogen) and named pcDNA3.1 (−)-hVR1 plasmid. The sequence of the cDNA encoding TRPV1 is available at GenBank accession number AJ277028.
CHO-K1 cells were maintained in growth medium consisting of α-MEM, 10% FBS (Hyclone), and 100 IU/mL of penicillin-100 μg/mL of streptomycin mixed solution (Nacalai Tesque, Japan) at 37° C. in an environment of humidified 95% air and 5% CO2. The cells were transfected with the pcDNA3.1 (−)-hVR1 plasmid using FuGENE6 (Roche) according to the manufacturer's protocol. 24 hr after transfection, neomycin-resistant cells were selected using 1 mg/mL G418 (Nacalai Tesque). After 2 weeks, individual colonies were picked, expanded, and screened for the expression of hTRPV1 in the capsaicin-induced Ca^2+ influx assay (see below) with a FLIPR (Molecular Devices). A clone with the largest Ca^2+ response to capsaicin was selected and re-cloned by the same procedure. The cells expressing hTRPV1 were cultured in the growth medium supplemented with 1 mg/mL G418.
TRPV1/CHO cells were seeded in the 96-well clear-bottom black-wall plate (Nunc) at densities of 1-2×10^4 cells/well and grown in 100 μL of culture medium (alpha-MEM supplemented with 10% FBS, 20 mM HEPES, 1 mg/mL geneticin and 1% antibiotic-antimycotic mixed stock solution) for 1-2 days before the experiment.
Different agonist solutions with sulfuric acid concentrations of from 15 mM to 18 mM (see FIG. 1) were prepared by diluting 1M sulfuric acid with measuring buffer. The different sulfuric acid concentrations in the agonist solutions were selected such that a 1:4 dilution would result in a final sulfuric acid concentration of between 3.0 mM to 3.6 mM, respectively, as indicated in FIG. 1.
The cells were stimulated using 3.0 mM (well number B1-6), 3.1 mM (C1-6), 3.2 mM (D1-6), 3.3 mM (E1-6), 3.4 mM (F1-6), 3.5 mM (G1-6), or 3.6 mM (H1-6) H2SO4 or pH 7.2 measuring buffer without H2SO4 (A1-6) (FIG. 2).
(1) Culture medium was removed using an 8-channel-pipette (Rainin, USA) from the 96-well plate and the wells were refilled with 100 μL of loading buffer (20 mM HEPES, 115 mM NaCl, 5.4 mM KCl, 0.8 mM MgCl2, 1.8 mM CaCl2, 13.8 mM D-glucose, 2.5 mM probenecid, pH 7.4) containing 5 μM Fura-2 AM (Dojin, Japan).
(2) The 96-well plate was incubated at 37° C. for 45 min.
(3) The loading buffer was removed from each well. The cells were subsequently washed twice with 150 μL of measuring buffer (20 mM HEPES, 115 mM NaCl, 5.4 mM KCl, 0.8 mM MgCl2, 5.0 mM CaCl2, 13.8 mM D-glucose, 0.1% BSA, pH 7.4) (no probenecid). The wells were then refilled with 80 μL of measuring buffer.
(4) After an incubation at 4° C. for 15 min, the 96-well plate was transferred to FDSS-3000 (Hamamatsu Photonics, Japan).
(5) The Fura-2 fluorescent intensity was monitored at a wavelength of 340 nm and at 380 nm, respectively, at a rate of 0.5 Hz for a total of 240 seconds.

T1 sequence (Q8NER1 whole entry): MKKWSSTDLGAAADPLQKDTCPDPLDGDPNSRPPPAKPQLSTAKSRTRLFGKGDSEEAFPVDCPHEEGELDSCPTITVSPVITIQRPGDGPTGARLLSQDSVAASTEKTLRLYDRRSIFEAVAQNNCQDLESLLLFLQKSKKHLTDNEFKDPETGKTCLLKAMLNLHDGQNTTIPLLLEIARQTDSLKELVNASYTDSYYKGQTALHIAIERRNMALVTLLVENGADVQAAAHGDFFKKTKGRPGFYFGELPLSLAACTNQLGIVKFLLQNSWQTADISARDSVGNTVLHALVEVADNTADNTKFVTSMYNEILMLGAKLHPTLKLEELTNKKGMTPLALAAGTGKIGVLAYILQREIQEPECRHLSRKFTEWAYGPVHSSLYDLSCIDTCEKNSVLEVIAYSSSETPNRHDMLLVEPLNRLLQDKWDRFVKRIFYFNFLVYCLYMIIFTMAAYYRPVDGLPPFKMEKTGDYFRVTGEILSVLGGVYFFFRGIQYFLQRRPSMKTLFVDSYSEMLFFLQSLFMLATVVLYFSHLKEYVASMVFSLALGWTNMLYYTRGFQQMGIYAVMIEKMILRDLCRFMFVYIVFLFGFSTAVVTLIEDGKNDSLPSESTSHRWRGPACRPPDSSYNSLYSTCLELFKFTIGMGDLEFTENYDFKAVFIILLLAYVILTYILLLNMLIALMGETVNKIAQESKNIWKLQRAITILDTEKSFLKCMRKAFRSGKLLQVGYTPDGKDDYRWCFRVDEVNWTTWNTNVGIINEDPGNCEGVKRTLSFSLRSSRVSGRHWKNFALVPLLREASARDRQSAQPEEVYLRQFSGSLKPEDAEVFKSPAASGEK

Broadly, the IC50 is the midpoint of a concentration-inhibition curve. `O=C(Nc1nc2ccc(Cl)cc2s1)N1CC=C(c2ncc(CO)cc2Cl)CC1` [Compound V2]: the results for the IC50 on human TRPV1 [1] and on human TRPV1 [2] were 234 ± 44.6 nM and 83.2 ± 7.6 nM, respectively.
On the same counts, the results for `O=C(Nc1ccc(C(F)(F)F)cn1)N1CCC(F)(c2ncccc2Cl)CC1` [Compound 204] are 167 nM and 154 nM.
On the same counts, the results for `CCOc1cc(NC(=O)N2CC=C(c3ncc(CO)cc3Cl)CC2)ccc1C(F)(F)F` [Compound N2] are 161 ± 16.6 nM and 27.3 ± 2.6 nM.
Regarding `CC(C)(O)c1cnc(C2=CCN(C(=O)Nc3ccc(C(F)(F)F)c(F)c3)CC2)c(Cl)c1` [Compound E3], the half-maximal inhibitory concentration (IC50) at human TRPV1 [1] amounted to 671 ± 133 nM; at human TRPV1 [2], 141 ± 23.1 nM.
In the same order, the values of `COc1cc(NC(=O)N2CCC(F)(c3ncc([C@H](O)CO)cc3F)CC2)ccc1C(F)(F)F` [Compound C5] are 108 ± 38.4 nM and 39.9 ± 7.9 nM.
In the same order, the values of `CC(C)(O)c1cnc(C2=CCN(C(=O)Nc3nc4ccc(Cl)cc4s3)CC2)c(Cl)c1` [Compound B3] are 537 ± 62 nM and 106 ± 11.4 nM.
In the same order, the values of `CN1CCCc2ccc(NC(=O)N3CCN(c4ncc([C@H](O)CO)cc4Cl)CC3)cc21` [Compound H5] are 520 ± 88.6 nM and 516 ± 99.2 nM.
In the case of `O=C(Nc1nc2ccc(F)cc2s1)N1CCN(c2ncc([C@H](O)CO)cc2Cl)CC1` [Compound V6, (S)-4-(3-chloro-5-(1,2-dihydroxyethyl)pyridin-2-yl)-N-(6-fluorobenzo[d]thiazol-2-yl)piperazine-1-carboxamide], the IC50 on human TRPV1 [1] stood at 16 ± 1.6 nM; at human TRPV1 [2], 6.2 nM.
In the same order, the values of `O=C(Nc1ccc(Br)c(C(F)(F)F)c1)N1CCC(F)(c2ncc([C@H](O)CO)cc2Cl)CC1` [Compound B5] are 106 ± 21 nM and 15 ± 3 nM.
On the same counts, the results for `CC(O)c1cnc(C2=CCN(C(=O)Nc3ccc(C(F)(F)F)cn3)CC2)c(Cl)c1` (stereo not shown) [Compound B6] are 922 ± 205 nM and 362 ± 69.1 nM.
On the same counts, the results for `O=C(Nc1ccc(Cl)c(C(F)(F)F)c1)N1CCN(c2ncc([C@H](O)CO)cc2Cl)CC1` [Compound W6, (S)—N-(4-chloro-3-(trifluoromethyl)phenyl)-4-(3-chloro-5-(1,2-dihydroxyethyl)pyridin-2-yl)piperazine-1-carboxamide] are 32.9 ± 11.8 nM and 14.9 ± 2.2 nM.
`Cc1cc(NC(=O)N2CC=C(c3ncc([C@H](O)CO)cc3F)CC2)ccc1OC(F)(F)F` [Compound S3]: the IC50 at human TRPV1 [1] worked out at 17.7 ± 2 nM; at human TRPV1 [2], 9.2 nM.
On the same counts, the results for `COCc1cnc(C2=CCN(C(=O)Nc3ccc(C(F)(F)F)cc3)CC2)c(Cl)c1` [Compound F3] are 916 ± 306 nM and 585 nM.
In the case of `O=C(Nc1ccc(Cl)c(C(F)(F)F)c1)N1CCC(F)(c2ncc([C@@H](O)CO)cc2F)CC1` [Compound G5], the IC50 on human TRPV1 [1] worked out at 400 ± 10.6 nM; at human TRPV1 [2] it was 108 nM.
For `O=C(Nc1nc2ccc(Cl)cc2s1)N1CC=C(c2ncc([C@H](O)CO)cc2Cl)CC1` [Compound W1], the IC50 was 68.9 ± 18.4 nM at human TRPV1 [1] and 9.3 ± 1.9 nM at human TRPV1 [2].
On the same counts, the results for `O=C(Nc1nc2ccc(F)cc2s1)N1CCC(F)(c2ncccc2Cl)CC1` [Compound 206] are 508 nM and 1460 nM.
In the case of `O=C(Nc1ccc(C(F)(F)F)c(Cl)c1)N1CC=C(c2ncc([C@H](O)CO)cc2Cl)CC1` [Compound D2, (S)-3-Chloro-5-(1,2-dihydroxy-ethyl)-3′,6′-dihydro-2′H-[2,4′]bipyridinyl-1′-carboxylic acid (3-chloro-4-trifluoromethyl-phenyl)amide], the IC50 was 85.3 ± 20.7 nM on human TRPV1 [1] and 10.8 ± 0.9 nM at human TRPV1 [2].
In the same order, the values of `O=C(Nc1ccc(C(F)(F)F)cc1)N1CC=C(c2ncc(C(F)(F)CO)cc2Cl)CC1` [Compound F4, 4-(3-chloro-5-(1,1-difluoro-2-hydroxyethyl)pyridin-2-yl)-N-(4-(trifluoromethyl)phenyl)-5,6-dihydropyridine-1(2H)-carboxamide] are 86.7 ± 18.9 nM and 32.5 ± 2.4 nM.
On the same counts, the results for `O=C(Nc1ccc(S(=O)(=O)C(F)(F)F)cc1)N1CC=C(c2ncc(CO)cc2Cl)CC1` [Compound C2] are 98.7 ± 33.9 nM and 41.8 ± 3.8 nM.
In the same order, the values of `O=C(Nc1ccc(Cl)c(C(F)(F)F)c1)N1CC=C(c2ncc([C@H](O)CO)cc2F)CC1` [Compound K2] are 141 ± 41.9 nM and 47.2 ± 6.7 nM.
With `O=C(Nc1nc2ccc(Cl)cc2s1)N1CCC(F)(c2ncc([C@@H](O)CO)cc2F)CC1` [Compound Z5], the results for the IC50 on human TRPV1 [1] and on human TRPV1 [2] were 35.5 ± 3.9 nM and 16.4 ± 1.9 nM, respectively.
On the same counts, the results for `O=C(Nc1ccc(OC(F)(F)F)cc1)N1CC=C(c2ncc(CO)cc2Cl)CC1` [Compound Q2] are 194 ± 27.1 nM and 85.9 ± 21.8 nM.
In the case of `CC(C)(C)c1ccc(NC(=O)N2CC=C(c3ncc([C@H](O)CO)cc3F)CC2)cc1` [Compound D1], the IC50 on human TRPV1 [1] turned out to be 16.5 ± 4.1 nM; at human TRPV1 [2], 0.9 nM.
On the same counts, the results for `CC(C)(O)c1cnc(C2=CCN(C(=O)Nc3ccc(C(F)(F)F)cc3)CC2)c(Cl)c1` [Compound X2] are 248 ± 25.1 nM and 81.1 ± 10.5 nM.
In the same order, the values of `CCCOc1cc(NC(=O)N2CC=C(c3ncc(CO)cc3Cl)CC2)ccc1C(F)(F)F` [Compound O2] are 162 ± 29.5 nM and 18.8 ± 4 nM.
As to `O=C(Nc1ccc(C(F)(F)F)cc1)N1CCC(F)(c2ncccc2Cl)CC1` [Compound 203], the IC50 on human TRPV1 [1] stood at 90.2 nM; at human TRPV1 [2] it was 51.2 nM.
In the same order, the values of `O=C(Nc1ccc(C(F)(F)F)c(Cl)c1)N1CC=C(c2ncc([C@@H](O)CO)cc2Cl)CC1` [Compound M3] are 187 ± 43.7 nM and 30 ± 2.1 nM.
In the same order, the values of `O=C(Nc1ccc(C(F)(F)F)cn1)N1CC=C(c2ncc(CO)cc2Cl)CC1` [Compound Z2] are 401 ± 122 nM and 248 ± 45.3 nM.
On the same counts, the results for `O=C(Nc1ccc(C(F)(F)F)cn1)N1CCC(F)(c2ncc([C@H](O)CO)cc2Cl)CC1` [Compound G1] are 31.3 ± 8.8 nM and 16.4 nM.
